From patent US20250082652A1, “SIGNALLING-PATHWAY INHIBITOR COMBINATIONS FOR USE IN THE TREATMENT OF CANCER DISEASES” (UNIVERSITÄT ZU KÖLN, priority 2022, published 2025)

Experiments:
Format in all cases: cell-based
[1] = tested on: murine cancer cell lines M108, M191, BSQ10, BSQ12.4, BSQ27, BWQ89.3; assay: Cell viability (CellTiterGlo), IKK2 inhibitors with or without Nec1s and/or ABT-199, FIG. 3 A-F; conditions: 72 hrs; for synergistic killing of cancer cell lines (cell viability): ABT-199 combined with an IKK2 inhibitor (ML120B, BI605906 or PS1145), FIG. 3
Procedure: (§1) Murine (A-F) and human (G) cell lines were treated with IKK2 inhibitors in the absence or presence of a RIPK1 inhibitor and/or a BCL-2 inhibitor as indicated. Cell viability was measured after 72 hrs using CellTiterGlo assay. The data points represent mean values of independent experiments. A. The murine cell line M108 was treated with the IKK2 inhibitors ML120B, BI605906 and PS1145 in the absence or presence of the RIPK1 inhibitor Nec1s (10 μM or 20 μM, as indicated) and/or the BCL-2 inhibitor ABT-199 (125 nM or 250 nM as indicated). B. The murine cell line M191 was treated with the IKK2 inhibitors ML120B, PS1145 and BI605906 in the absence or presence of the RIPK1 inhibitor Nec1s (10 μM or 20 μM, as indicated) and/or the BCL-2 inhibitor ABT-199 (125 nM or 250 nM as indicated). C. The murine cell line BSQ10 was treated with the IKK2 inhibitors ML120B, PS1145 and BI605906 in the absence or presence of the RIPK1 inhibitor Nec1s (10 μM or 20 μM, as indicated) and/or the BCL-2 inhibitor ABT-199 (125 nM or 250 nM as indicated). D. The murine cell line BSQ12.4 was treated with the IKK2 inhibitors ML120B, PS1145 and BI605906 in the absence or presence of the RIPK1 inhibitor Nec1s (10 μM or 20 μM, as indicated) and/or the BCL-2 inhibitor ABT-199 (125 nM or 250 nM as indicated). E. The murine cell line BSQ27 was treated with the IKK2 inhibitors ML120B, PS1145 and BI605906 in the absence or presence of the RIPK1 inhibitor Nec1s (10 μM or 20 μM, as indicated) and/or the BCL-2 inhibitor ABT-199 (125 nM or 250 nM as indicated). F. The murine cell line BWQ89.3 was treated with the IKK2 inhibitors ML120B, PS1145 and BI605906 in the absence or presence of the RIPK1 inhibitor Nec1s (10 μM or 20 μM, as indicated) and/or the BCL-2 inhibitor ABT-199 (125 nM or 250 nM as indicated). G. The human cell line HBL1 was treated with the IKK2 inhibitors ML120B, PS1145 and BI605906 in the absence or presence of the RIPK1 inhibitor Nec1s (10 μM or 20 μM, as indicated) and/or the BCL-2 inhibitor ABT-199 (125 nM or 250 nM as indicated).
(§2) The murine MBC M-191, M-190, M-108, and M-552 cell lines were generated by adopting cells from murine Myd88p.L252P/wt;R26LSL.BCL2/wt;CD19Cre/wt tumors to cell culture conditions. BSQ10, BSQ12.4 and BSQ27 are stable cell lines generated from Cd79 bp.Y195H/wt;Myd88p.L252P/wt;R26LSL.BCL2/wt;CD19Cre/wt tumors. BWQ89.3 is a stable cell line derived from a murine Prdm1flox/flox;Myd88p.L252P/wt;R26LSL.BCL2/wt;CD19Cre/wt tumor. The MBC cell lines are derived from tumors spontaneously developing in mice that B cell-specifically express the Myd88 p.L252P mutation (the murine orthologue of the human p.L265P) from the endogenous locus in combination with a strong BCL2 overexpression derived from a Rosa26 knock-in allele. Both MYD88 mutations and BCL2 overexpression are frequently found in ABC-DLBCL and Myd88p.L252P/wt;R26LSL.BCL2/wt;CD19Cre/wt animals (abbreviated MBC) develop an ABC-DLBCL-like disease with high NF-kB activation (17).
Murine cell lines (FIG. 3 A-F) were cultured in DMEM media (Gibco) containing 10% FCS, 1% penicillin/[…] (Gibco), 6 ml L-glutamine (200 mM, Gibco), 6 ml sodium pyruvate (100 mM, Gibco), 6 ml HEPES (1 M), 6 ml non-essential amino acids (100×, Gibco), and 50 μM 2-mercaptoethanol. […] Cell viability of murine and human cell lines was measured after 72 hrs using CellTiterGlo assay. […]

[2] = tested on: human DLBCL cell line HBL1; assay: Cell viability (CellTiterGlo), IKK2 inhibitors with or without Nec1s and/or ABT-199, FIG. 3 G; conditions: 72 hrs; for synergistic killing of cancer cell lines (cell viability): ABT-199 combined with an IKK2 inhibitor (ML120B, BI605906 or PS1145), HBL1, FIG. 3
Procedure: as §1
Murine cell lines (FIG. 3 A-F) were cultured in DMEM media (Gibco) containing 10% FCS, 1% penicillin/[…] (Gibco), 6 ml L-glutamine (200 mM, Gibco), 6 ml sodium pyruvate (100 mM, Gibco), 6 ml HEPES (1 M), 6 ml non-essential amino acids (100×, Gibco), and 50 μM 2-mercaptoethanol. Cells were plated in opaque 384-well plates at a density of 100.000 cells/ml (30 μl of culture volume) and treated with the indicated compounds dissolved in DMSO using a Tecan D300e digital dispenser. The human DLBCL cell line HBL1 (FIG. 3 G) was cultured in RPMI (Gibco) containing 20% FCS (Gibco) and 1% penicillin/[…] (Gibco) and treated with the indicated compounds dissolved in DMSO using a Tecan D300e digital dispenser. Cell viability of murine and human cell lines was measured after 72 hrs using CellTiterGlo assay. The data points represent mean values of independent experiments.

[3] = tested on: MBC M-191, M-190, M-108, and M-552 cell lines (murine ABC-DLBCL cell lines); assay: Cell viability (CellTiter-Glo), single inhibitors; conditions: single agent, 72 hours, FIG. 1
Procedure: The murine MBC lines M-191, M-190, M-108 and M-552 were treated with (A) the IKK2 inhibitor LY-2409881 (0, 0.185, 0.556, 1.667, 5, 15 μM) or (B) the BCL-2 inhibitor ABT-199 (0, 11.1, 33.3, 100, 300 nM) for 72 hours and cell viability was measured by CellTiter-Glo®. The illustrations in FIG. 1 represent three independent experiments.
as §2, with “(17). […]” for “(17).”

[4] = tested on: murine MBC cell lines M-108, M-191, and M-552; assay: Cell viability (CellTiter-Glo), ABT-199 and/or ML120B; conditions: ABT-199 combined with ML120B, 72 hours, M108, M191 and M552, FIG. 2
Procedure: The murine MBC lines M-191, M-190, M-108 and M-552 were treated with ABT-199 and/or IKK2-inhibitor ML120B at the indicated doses for 72 hours and cell viability was measured by CellTiter-Glo®. The illustrations in FIG. 2 represent two independent experiments. To test the pharmacological inhibition potential of IKK2 and BCL-2 to kill lymphoma cells, MBC M-191, M-190, M-108, and M-552 cell lines were cultured in DMEM media (Gibco) containing 10% FCS, 1% penicillin/[…] (Gibco), 6 ml L-glutamine (200 mM, Gibco), 6 ml sodium pyruvate (100 mM, Gibco), 6 ml HEPES (1 M), 6 ml non-essential amino acids (100×, Gibco), 50 μM 2-mercaptoethanol. Then, cell viability assays were used to test the pharmacological inhibition potential of IKK2 (using the inhibitor LY2409881) and BCL-2 (using the inhibitor ABT-199) to kill the MBC M-191, M-190, M-108, and M-552 cell lines. […] After an incubation time of 15 minutes, the luminescence signal was read on a plate reader (Tecan). All conditions were measured in triplicate, randomized across the plate and the DMSO concentration in each well was adjusted to maximum DMSO concentration (0.4%) in all wells, and normalized to untreated conditions. […]

[5] = tested on: IL-1β production by macrophages; assay: LPS-induced production of IL-1β by macrophages treated with IKK inhibitors; conditions: pharmacological RIPK1 inhibition

SMILES	synergistic killing of cancer cell lines (cell viability) [1]	synergistic killing of cancer cell lines (cell viability) [2]	synergistic killing of cancer cell lines (cell viability) [4]	other results
CC1(C)CCC(CN2CCN(c3ccc(C(=O)NS(=O)(=O)c4ccc(NCC5CCOCC5)c([N+](=O)[O-])c4)c(Oc4cnc5[nH]ccc5c4)c3)CC2)=C(c2ccc(Cl)cc2)C1 [ABT-199]	synergize to potentiate killing	synergize to potentiate killing	synergize to potentiate killing	killing of lymphoma cells (cell viability) [3]: strong toxicity
CCC(F)(F)c1cc(N2CCC(S(C)(=O)=O)CC2)nc2sc(C(N)=O)c(N)c12 [BI605906]	synergize to potentiate killing	synergize to potentiate killing	–	–
COc1c(Cl)cc2c([nH]c3cnccc32)c1NC(=O)c1cccnc1C [ML120B, N-(6-chloro-7-methoxy-9H-beta-carbolin-8-yl)-2-methylnicotinamide]	synergize to potentiate killing	synergize to potentiate killing	synergize to potentiate killing	–
CN1C(=O)NC(Cc2c[nH]c3c(Cl)cccc23)C1=O (centres unmarked) [Nec1s, 5-((7-chloro-1H-indol-3-yl)methyl)-3-methyl-2,4-imidazolidinedione]	–	–	–	effect of simultaneous RIPK1 inhibitor treatment on the synergizing killing effect of ABT-199 and IKK2 inhibitors ([1]; Nec1s 10 μM or 20 μM): not prevented; effect of simultaneous RIPK1 inhibitor treatment on the synergizing killing effect of ABT-199 and IKK2 inhibitors ([2]; Nec1s 10 μM or 20 μM, HBL1): not prevented
CN1C(=O)C(Cc2c[nH]c3ccccc23)NC1=S (centres unmarked) [Necrostatin-1, 5-(1H-indol-3-ylmethyl)-3-methyl-2-thioxo-4-imidazolidinone]	–	–	–	LPS-induced production of IL-1β [5]: strongly diminishes
O=C(Nc1cc(Cl)cc2c1[nH]c1cnccc12)c1cccnc1 [PS1145]	synergize to potentiate killing	synergize to potentiate killing	–	–
